Target: CDK2 (human) (UniProt P24941)
Experiment: Enzyme Assay

COc1ccc(C(=O)Nc2ccc(C(=O)Nc3ccc(-c4nc[nH]n4)c(F)c3)s2)c(C)c1
IC50: ≤ 1 µM

CCOc1ccccc1NC(=O)c1ccc(C(=O)Nc2ccc(-n3cncn3)c(F)c2)s1
IC50: ≥ 40 µM

COc1ccc(Cl)cc1NC(=O)c1ccc(C(=O)Nc2ccc(-n3cncn3)cc2)s1
IC50: 1 to 40 µM

O=C(Nc1ccc(-n2cncn2)cc1)c1ccc(C(=O)Nc2ccc3c(c2)C(=O)OC3)s1
IC50: ≥ 40 µM

COc1ccc(NC(=O)c2ccc(C(=O)Nc3ccc(C(N)=O)cc3)s2)c(C)c1
IC50: ≥ 40 µM

O=C(Nc1ccc(-n2cncn2)c(F)c1)c1ccc(C(=O)Nc2ccccc2N2CCOCC2)s1
IC50: ≥ 40 µM

COc1ccc(NC(=O)c2ccc(C(=O)Nc3ccc4ncccc4c3)s2)c(C)c1
IC50: ≥ 40 µM

CN(C(=O)c1ccc(C(=O)Nc2ccc(-n3cncn3)cc2)s1)C1CCCCC1
IC50: ≤ 1 µM

NS(=O)(=O)c1ccc(NC(=O)c2ccc(C(=O)Nc3ccc(-n4cncn4)cc3)s2)cc1
IC50: ≥ 40 µM

O=C(NCCN1CCCC1)c1ccc(C(=O)Nc2ccc(-n3cncn3)cc2)s1
IC50: 1 to 40 µM

O=C(Nc1ccc(-n2cncn2)cc1)c1ccc(C(=O)N2CCCC2c2cccnc2)s1 (centres undefined)
IC50: ≥ 40 µM

Cc1cc(CN2CCN(C)CC2)ccc1NC(=O)c1ccc(C(=O)Nc2ccc(-n3cncn3)c(F)c2)s1
IC50: ≤ 1 µM

Nc1ccc(CNC(=O)c2ccc(C(=O)Nc3ccc(-n4cncn4)cc3)s2)cn1
IC50: ≥ 40 µM

O=C(Nc1ccc(-n2cncn2)cc1)c1ccc(C(=O)NC2CCCCC2)s1
IC50: ≥ 40 µM

COc1cccc(NC(=O)c2ccc(C(=O)Nc3ccc(-n4cncn4)cc3)s2)c1
IC50: ≥ 40 µM

COc1ccc(NC(=O)c2ccc(C(=O)N3CCC(c4ccccn4)C3)s2)c(C)c1 (centres undefined)
IC50: 1 to 40 µM

Cc1ccccc1C(=O)Nc1ccc(C(=O)Nc2ccc(-n3cncn3)cc2)s1
IC50: ≤ 1 µM

COc1ccc(NC(=O)c2ccc(C(=O)Nc3ccc(-n4cncn4)cc3)s2)cc1O
IC50: ≥ 40 µM

O=C(Nc1ccc(-n2cncn2)cc1)c1ccc(C(=O)N2CCCCC2)s1
IC50: ≥ 40 µM

COc1ccc(C(=O)Nc2ccc(C(=O)N3CCC(c4ccccn4)C3)s2)c(C)c1 (centres undefined)
IC50: ≥ 40 µM

Cc1cc(CN2CCOCC2)ccc1NC(=O)c1ccc(C(=O)Nc2ccc(-n3cncn3)c(F)c2)s1
IC50: ≤ 1 µM

O=C(Nc1ccc(-n2cncn2)c(F)c1)c1ccc(C(=O)Nc2ccccc2OCc2ccccc2)s1
IC50: ≥ 40 µM

CNC(=O)c1ccc(C(=O)Nc2ccc(-n3cncn3)c(F)c2)o1
IC50: ≥ 40 µM

Cc1cc(C)nc(NC(=O)c2ccc(C(=O)Nc3ccc(-n4cncn4)cc3)s2)c1
IC50: ≥ 40 µM

CN(Cc1ccccc1)C(=O)c1ccc(C(=O)Nc2ccc(-n3cncn3)cc2)s1
IC50: ≥ 40 µM

COc1ccc(NC(=O)c2ccc(C(=O)Nc3ccc(N(C)C)cc3)s2)c(C)c1
IC50: ≥ 40 µM

O=C(Nc1ccc(-n2cncn2)cc1)c1ccc(C(=O)NC2CCCCC2)o1
IC50: ≤ 1 µM

Cc1cc(Cn2ccnc2)ccc1NC(=O)c1ccc(C(=O)Nc2ccc(-n3cncn3)c(F)c2)s1
IC50: ≤ 1 µM

O=C(Nc1ccc(-n2cncn2)cc1)c1ccc(C(=O)N[C@H]2CCc3ccccc32)s1
IC50: 1 to 40 µM

O=C(Nc1ccc(-n2cncn2)c(F)c1)c1ccc(C(=O)Nc2ccccc2OC2CCCCC2)s1
IC50: ≥ 40 µM

COc1ccc(NC(=O)c2ccc(C(=O)Nc3ccc(-c4c(C)noc4C)cc3)s2)c(C)c1
IC50: ≥ 40 µM

O=C(NCc1ccc2c(c1)CCO2)c1ccc(C(=O)Nc2ccc(-n3cncn3)cc2)s1
IC50: ≥ 40 µM

O=C(NCCc1c[nH]cn1)c1ccc(C(=O)Nc2ccc(-n3cncn3)cc2)s1
IC50: ≥ 40 µM

O=C(Nc1ccc(C(=O)Nc2ccc(-n3cncn3)cc2)s1)c1ccncc1
IC50: ≥ 40 µM

CN(C(=O)c1ccc(C(=O)Nc2ccc(-n3cncn3)c(F)c2)o1)C1CCCCC1
IC50: ≥ 40 µM

COC[C@H](C)NC(=O)c1ccc(C(=O)Nc2ccc(-n3cncn3)cc2)s1
IC50: ≥ 40 µM

Cc1ccnc(NC(=O)c2ccc(C(=O)Nc3ccc(-n4cncn4)cc3)s2)c1
IC50: ≥ 40 µM

O=C(Nc1ccc(-n2cncn2)cc1)c1ccc(C(=O)N[C@@H]2CCNC2)s1
IC50: ≥ 40 µM

COc1ccc(NC(=O)c2ccc(C(=O)Nc3ccc(-n4ccnc4)cc3)s2)c(C)c1
IC50: ≥ 40 µM

COC(=O)c1cc(OC)ccc1NC(=O)c1ccc(C(=O)Nc2ccc(-n3cncn3)cc2)s1
IC50: 1 to 40 µM

O=C(Nc1ccc(-n2cncn2)c(F)c1)c1ccc(C(=O)Nc2ccccc2F)s1
IC50: ≤ 1 µM

O=C(NC[C@H]1CCCO1)c1ccc(C(=O)Nc2ccc(-n3cncn3)cc2)s1
IC50: ≥ 40 µM

C[C@H](O)CNC(=O)c1ccc(C(=O)Nc2ccc(-n3cncn3)cc2)s1
IC50: ≥ 40 µM

O=C(Nc1ccc(-n2cncn2)cc1)c1ccc(C(=O)NC2CCCC2)s1
IC50: 1 to 40 µM

O=C(Nc1ccc(-n2cncn2)c(F)c1)c1ccc(C(=O)N[C@H]2CC[C@H](O)CC2)o1
IC50: 1 to 40 µM

C[C@@H](NC(=O)c1ccc(C(=O)Nc2ccc(-n3cncn3)c(F)c2)o1)C1CCCCC1
IC50: 1 to 40 µM

O=C(Nc1ccc(-n2cncn2)c(F)c1)c1ccc(C(=O)Nc2ccccc2C(F)(F)F)s1
IC50: 1 to 40 µM

O=C(Nc1ccncc1)c1ccc(C(=O)Nc2ccc(-n3cncn3)cc2)o1
IC50: 1 to 40 µM

O=C(Nc1ccc(-n2cncn2)c(F)c1)c1ccc(C(=O)Nc2ccccc2-n2cccn2)s1
IC50: ≥ 40 µM

From the Kinase Knowledgebase extract (Sharma et al. 2016)
